According to patent publication US12173309B2, “Compounds for increasing genome editing efficiency” (Max-Planck-Gesellschaft zur Förderung der Wissenschaften …, priority 2017, dated 2024):

Test system: primary Human Epidermal Keratinocytes (HEKa)
Assay: PGE of HPRT with Cpf1 electroporation in non-pluripotent cells
Assay type: cell-based
Protocol: Stem cell lines cultured for this project included human 409-B2 hiPSC ([…], Riken BioResource Center) and SC102A1 hiPSC ([…], BioCat GmbH), chimpanzee SandraA ciPSC (female, Mora-Bermúdez et al. 201637), as well as H9 hESC ([…], WiCell Research Institute, Ethics permit AZ 3.04.02/0118). Stem cell lines were grown on Matrigel Matrix (Corning, 35248), and mTeSR1 (StemCell Technologies, 05851) with mTeSR1 supplement (StemCell Technologies, 05852) was used as culture media. Non-pluripotent cell types and their respective media used were: HEK293 (ECACC, 85120602) with DMEM/F-12 (Gibco, 31330-038) supplemented with 10% FBS (SIGMA, F2442) and 1% NEAA (SIGMA, M7145); K562 (ECACC, 89121407) with IMDM (ThermoFisher, 12440053) supplemented with 10% FBS; CD4^+ T (HemaCare, PB04C-1) with RPMI 1640 (ThermoFisher, 11875-093) supplemented with 10% FBS, and activated with Dynabeads Human T-Activator (CD3/CD28) (ThermoFisher, 11131D); CD34^+ progenitor (HemaCare, M34C-1) with StemSpan SFEM (Stemcell, 09600) supplemented with StemSpan CC110 (StemCell, 02697); and HEKa (Gibco, C0055C) with Medium 154 (ThermoFisher, M154500) and Human Keratinocyte Growth Supplement (ThermoFisher, S0015). Cells were grown at 37° C. in a humidified incubator gassed with 5% CO2. Media was replaced every day for stem cells and every second day for non-pluripotent cell lines. Cell cultures were maintained 4-6 days until ˜80% confluency, and subcultured at a 1:6 to 1:10 dilution. Adherent cells were dissociated using EDTA (VWR, 437012C). The media was supplemented with 10 μM Rho-associated protein kinase (ROCK) inhibitor Y-27632 (Calbiochem, 688000) after cell splitting for one day in order to increase cell survival.
The recombinant A.s. Cpf1 and S.p. Cas9 protein and electroporation enhancer was ordered from IDT (Coralville, USA) and nucleofection was done using the manufacturer's protocol, except for the following alterations. […] Cells were counted using the Countess Automated Cell Counter (Invitrogen). […]

Q: For O=c1cc(N2CCOCC2)oc2c1ccc1ccccc12 [NU7026], which “effect on PGE efficiency” value is on record?
A: disruptive effect

Q: For NS(=O)(=O)OC[C@@H]1C[C@@H](n2ccc3c(N[C@H]4CCc5ccccc54)ncnc32)C[C@@H]1O [MLN4924, Pevonedistat], which “effect on PGE efficiency” value is on record?
A: disruptive effect

Q: Which “effect on PGE efficiency” value does the source give for CC(C)C1=CC23CCC4C(C)(C(=O)O)CCCC4(C)C2CC1C(C(=O)O)C3C(=O)O (stereo not drawn) [NSC 15520, Fumaropimaric acid] here?
A: disruptive effect
